Measurements: patent US20240180915A1, “OIL-IN-WATER EMULSION OF 6-ETHOXY-7-METHOXY-2-(2-[…])-3,L-BENZOXAZIN-4-ONE” (SIXERA PHARMA AB, priority 2021, published 2024)

Key:
[1] = Initial formulation attempts with common solvents and excipients: crystal formation upon storage; assay type: physicochemical; details: common pharmaceutically acceptable solvents and excipients
From the text: Accordingly, further development was needed to arrive at a stable topical formulation where crystal formation of 6-ethoxy-7-methoxy-2-(2-methylsulfanylphenyl)-3,1-benzoxazin-4-one can be avoided.

[2] = Solubility of the active in water and organic solvents (statement); assay type: physicochemical
From the text: However, such organic solvents are unsuitable for use in topical formulations for treatment of skin disease.

With `CCOc1cc2c(=O)oc(-c3ccccc3SC)nc2cc1OC` [6-Ethoxy-7-methoxy-2-(2-methylsulfanylphenyl)-3,1-benzoxazin-4-one] as the compound, how does the “Crystal formation upon storage of the formulation” value [1] read?
Its value is “form needle shaped crystals upon storage of the formulation”.

What about the “Solubility in organic solvents” value ([2]; various organic solvents) of the same compound?
The value was “can be dissolved in various organic solvents”.

And the Solubility in water ([2]; water)?
Its Solubility in water is “low solubility in water”.
